Measured values as given in patent US20230390297A1, “USE OF NUCLEOTIDE SYNTHESIS INHIBITORS FOR TARGETED THERAPY IN MLL3/4 COMPASS MUTANT CANCER” (priority 2022, published 2023).

Assays:
[1] = tested on: WT and Mll3/4 KO mESCs; experiment: RNA-seq of WT and Mll3/4 KO mESCs treated with LTX -/+ HPX; format: cell-based, mouse; settings: 0.3 μM LTX or 50 μM HPX alone, 48 hours; LTX effect almost completely rescued by HPX
Experimental: (§1) FIG. 3. […] (A) WT and Mll3/4 KO cells were treated with 0-2.5 μM lometrexol (LTX)−/+50 hypoxanthine (HPX) for 48 hours. CellTiter-Glo® luminescent cell viability assay was performed to determine the percentage of inhibition under these conditions. (B) WT and KO cells were treated with 0.3 μM LTX−/+50 μM HPX for 48 hours, and cells were harvested for RNA-seq. Differential gene expression analyses were performed with indicated comparisons. (C) Principal component analysis of RNA-seq in (B). (D) Hierarchical clustering heatmap showing differentially expressed genes in KO cells in comparison with WT cells.
(§2) FIG. 10. Mll3/4 KO mESCs are more sensitive to purine synthesis inhibition. (A-B) WT and Mll3/4 KO cells were treated with 0-2.5 μM lometrexol (LTX) (A) or 0-5 methotrexate (MTX) (B) for 48 hours. CellTiter-Glo® luminescent cell viability assay was performed to determine the percentage of inhibition under these conditions with three different Mll3/4 KO clones included. (C) WT and Mll3/4 KO cells were treated with 0-40 μM SHIINI for 48 hours. MTT cell viability assay was performed to determine the percentage of inhibition under these conditions with three different Mll3/4 KO clones included.
Gene count tables were constructed using HTseq (56) with Ensembl gene annotations and used as input for edgeR 3.0.8 (57). Genes with Benjamini-Hochburg adjusted p-values less than were differentially expressed. Batch effects were removed using ComB at-seq on the raw read counts (58). Pathway analysis was performed with Metascape (59).

[2] = tested on: MLL4 mutant colorectal cancer cells (SW480, DLD1, HCT116, RKO); experiment: CellTiter-Glo viability assay in MLL4 wild type and MLL4 mutant colorectal cell lines; format: cell-based, human; settings: 72 hours; LTX 0-30 μM, Piericidin A 0-10 μM, Phenformin 0-30 mM
[3] = tested on: CAL51 breast cancer cells; experiment: CellTiter-Glo viability assay in CAL51 MLL4 WT, hNTD and KO cells; format: cell-based, human
Experimental: FIG. 17. Cells lacking of MLL4 function are selectively sensitive to de novo purine synthesis inhibition. (A) Tracer levels of glutamine (M+1) in SW1417, Caco2, RKO and HCT116 cells. (B) Labeled purine metabolite levels with 15 N glutamine tracing in SW1417, Caco2, RKO and HCT116 cells. MLL4 WT cells, blue; MLL4 mutant cells, red. (C) CellTiter-Glo® luminescent cell viability assay in CAL51 MLL4 WT, heterozygous truncation mutation (hNTD), and KO cells treated with MTX (0-1 μM). (D) CAL51 WT and MLL4KO cells were treated with 0.04, or 0.4 μM MTX in the presence of H2O, 50 μM thymidine or 50 μM inosine. CellTiter-Glo® luminescent cell viability assay was performed. (E-J) Cells were infected with lentiviruses expressing shCtrl, shGART or shPAICS. Two distinct shRNAs were included for GART and PAICS. Western blot showing the knockdown of GART and PAICS in RKO, HCT116, Caco2 and HT55 cells (E). The growth rates of HCT116 (F), RKO (G), Caco2 (H) and HT55 (I) cells with shCtrl, shGART or shPAICS were measured by cell counting, and the cell number was normalized with day 0. Colony formation of the four cell lines with GART or PAICS knockdown was performed by seeding 500 or 1000 cells in the 6 well plates and stained after 10-14 days of culture with media change every three days (J).

[4] = tested on: Mll3/4 KO mESCs; experiment: CellTiter-Glo luminescent cell viability assay in WT and Mll3/4 KO mESCs; format: cell-based, mouse; settings: 48 hours; LTX 0-2.5 μM, MTX 0-5; three Mll3/4 KO clones
Experimental: as §1, §2

[5] = tested on: Mll3/4 KO mESCs; experiment: MTT cell viability assay in WT and Mll3/4 KO mESCs; format: cell-based, mouse; settings: 0-40 μM, 48 hours; three Mll3/4 KO clones
Experimental: as §2

SMILES: O=c1[nH]cnc2nc[nH]c12 [HPX, hypoxanthine]
- gene expression change in WT and Mll3/4 KO cells [1]: subtle gene expression or phenotypic change

SMILES: C/C=C(\C)[C@H](O)[C@H](C)/C=C(C)/C=C/C/C(C)=C/Cc1nc(OC)c(OC)c(O)c1C [Piericidin A]
- sensitivity of MLL4 mutant cells compared with MLL4 wild type cells (growth inhibition) [2]: no sensitivity difference between MLL4 WT and mutant cells

SMILES: [H]/N=C(/N)N/C(=N/[H])NCCc1ccccc1 [Phenformin]
- sensitivity of MLL4 mutant cells compared with MLL4 wild type cells (growth inhibition) [2]: no sensitivity difference between MLL4 WT and mutant cells

SMILES: CN(Cc1cnc2nc(N)nc(N)c2n1)c1ccc(C(=O)N[C@@H](CCC(=O)O)C(=O)O)cc1 [methotrexate, (2S)-2-[[4-[(2,4-diaminopteridin-6-yl)methyl-methylamino]benzoyl]amino]pentanedioic acid]
- rescue of cytotoxic effect on MLL4KO cells by nucleosides ([3]; 0.04 or 0.4 μM MTX with 50 μM thymidine or 50 μM inosine): rescued by inosine not thymidine
- sensitivity of CAL51 cells with compromised MLL4 functions (MLL4hNTD, MLL4KO) compared with WT ([3]; MTX 0-1 μM): elevated MTX sensitivity
- sensitivity of Mll3/4 KO cells compared with WT cells (percentage of inhibition of viability) [4]: enhanced sensitivity

SMILES: Cc1[nH]nc2c1C(c1cc(CO)cc(-c3ccccc3)c1)(C(C)C)C(C#N)=C(N)O2 (stereo not shown) [SHIN1]
- sensitivity of Mll3/4 KO cells compared with WT cells (percentage of inhibition, MTT) [5]: enhanced sensitivity
